The assay concerns the target SIK2 (Homo sapiens, UniProt Q9H0K1). Kind of assay: SIK2 Enzymatic Assay High Version 2 (High ATP). Format: biochemical. The gist of the method: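 At room temperature, enzyme (6 nM, 2× final) was preincubated with compound for 30 min, then 6 mM ATP and 400 μM HDAC5tide (both 2× final) were added for 2 h. ADP formed was measured by ADP-Glo Max (2 h reagent, 1 h detection) using luminescence.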

[1] abbreviates: enzyme 6 nM, 6 mM ATP and 400 μM HDAC5tide (each 2× final concentration), 30 minutes pre-incubation, 2 hours, ADP-Glo Max luminescence, read-out: SIK2 high ATP IC50 (μM) (Test Example 2).

Read-outs that look alike come from different tables or passages of the source.

One may read the IC50 as the point on the concentration scale where inhibition reaches its midpoint.

Chain of SIK2 (Q9H0K1 whole entry, species assumed): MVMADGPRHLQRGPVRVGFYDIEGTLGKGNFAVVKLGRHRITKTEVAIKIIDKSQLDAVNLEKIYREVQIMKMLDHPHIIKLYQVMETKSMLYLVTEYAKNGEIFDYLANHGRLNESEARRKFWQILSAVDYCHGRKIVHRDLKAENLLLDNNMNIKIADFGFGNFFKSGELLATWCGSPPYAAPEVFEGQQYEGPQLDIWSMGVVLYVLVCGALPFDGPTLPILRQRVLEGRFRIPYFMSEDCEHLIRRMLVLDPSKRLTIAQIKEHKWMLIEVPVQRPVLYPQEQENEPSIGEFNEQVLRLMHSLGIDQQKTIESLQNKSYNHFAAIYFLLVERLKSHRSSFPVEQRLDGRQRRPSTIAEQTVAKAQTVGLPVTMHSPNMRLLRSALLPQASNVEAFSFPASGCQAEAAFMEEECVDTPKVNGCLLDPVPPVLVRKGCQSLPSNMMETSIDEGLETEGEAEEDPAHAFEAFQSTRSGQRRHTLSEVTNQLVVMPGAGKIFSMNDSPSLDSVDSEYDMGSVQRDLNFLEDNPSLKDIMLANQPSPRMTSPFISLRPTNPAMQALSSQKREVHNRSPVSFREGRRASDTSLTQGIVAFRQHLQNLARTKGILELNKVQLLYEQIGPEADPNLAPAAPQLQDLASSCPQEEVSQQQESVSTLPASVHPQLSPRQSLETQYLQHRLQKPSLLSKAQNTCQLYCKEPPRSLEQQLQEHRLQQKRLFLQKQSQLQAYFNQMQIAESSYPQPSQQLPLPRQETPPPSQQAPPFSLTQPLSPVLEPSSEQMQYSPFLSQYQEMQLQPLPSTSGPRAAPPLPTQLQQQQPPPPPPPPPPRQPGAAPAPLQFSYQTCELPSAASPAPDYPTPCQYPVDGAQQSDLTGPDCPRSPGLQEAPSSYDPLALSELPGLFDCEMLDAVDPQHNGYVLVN

For the compound `Cc1cc(-c2ccn3nc(Nc4cn(C)nn4)cc3c2)c(O[C@H]2C[C@H]3COC[C@@H](C2)N3C)cn1` [Example 414, 5-[2-methyl-5-[[(1R,5S,7s)-9-methyl-3-oxa-9-azabicyclo[3.3.1]nonan-7-yl]oxy]-4-pyridyl]-N-(1-methyltriazol-4-yl)pyrazolo[1,5-a]pyridin-2-amine], the concentration for half-maximal inhibition (IC50) came out at 0.0152 µM.
The compound `Cc1cc(-c2ccn3nc(Nc4cncnc4)cc3c2)c(O[C@H]2C[C@H]3COC[C@@H](C2)N3C)cn1` [Example 415, 5-[2-methyl-5-[[(1S,5R,7s)-9-methyl-3-oxa-9-azabicyclo[3.3.1]nonan-7-yl]oxy]-4-pyridyl]-N-pyrimidin-5-yl-pyrazolo[1,5-a]pyridin-2-amine] registered an IC50 of less than 0.000847 µM.
Turning to `Cc1cnc(Nc2cc3cc(-c4cc(C)ncc4O[C@H]4C[C@H]5COC[C@@H](C4)N5C)ccn3n2)cn1` [Example 416, 5-[2-methyl-5-[[(1S,5R,7s)-9-methyl-3-oxa-9-azabicyclo[3.3.1]nonan-7-yl]oxy]-4-pyridyl]-N-(5-methylpyrazin-2-yl)pyrazolo[1,5-a]pyridin-2-amine], the IC50 is less than 0.000847 µM.
Turning to `Cc1cc(-c2ccn3nc(Nc4cc(C)nc(C)n4)cc3c2)c(O[C@H]2C[C@H]3COC[C@@H](C2)N3C)cn1` [Example 417, N-(2,6-dimethylpyrimidin-4-yl)-5-[2-methyl-5-[[(1S,5R,7s)-9-methyl-3-oxa-9-azabicyclo[3.3.1]nonan-7-yl]oxy]-4-pyridyl]pyrazolo[1,5-a]pyridin-2-amine], the half-maximal inhibitory concentration (IC50) is less than 0.000847 µM.
On the same count and under the same terms, under `Cc1cc(-c2ccn3nc(Nc4cnccn4)cc3c2)c(O[C@H]2C[C@H]3COC[C@@H](C2)N3C)cn1` [Example 418, 5-[2-methyl-5-[[(1S,5R,7s)-9-methyl-3-oxa-9-azabicyclo[3.3.1]nonan-7-yl]oxy]-4-pyridyl]-N-pyrazin-2-yl-pyrazolo[1,5-a]pyridin-2-amine] stands less than 0.000847 µM; under `Cc1cc(-c2ccn3nc(Nc4cccnn4)cc3c2)c(O[C@H]2C[C@H]3COC[C@@H](C2)N3C)cn1` [Example 419, 5-[2-methyl-5-[[(1R,5S,7s)-9-methyl-3-oxa-9-azabicyclo[3.3.1]nonan-7-yl]oxy]-4-pyridyl]-N-pyridazin-3-yl-pyrazolo[1,5-a]pyridin-2-amine], less than 0.000847 µM; under `Cc1cc(-c2ccn3nc(Nc4ccncn4)cc3c2)c(O[C@H]2C[C@H]3COC[C@@H](C2)N3C)cn1` [Example 420, 5-[2-methyl-5-[[(1R,5S,7s)-9-methyl-3-oxa-9-azabicyclo[3.3.1]nonan-7-yl]oxy]-4-pyridyl]-N-pyrimidin-4-yl-pyrazolo[1,5-a]pyridin-2-amine], 0.00236 µM.
As to `Cc1cc(Nc2cc3cc(-c4cc(C)ncc4O[C@H]4C[C@H]5COC[C@@H](C4)N5C)ccn3n2)ncn1` [Example 421, 5-[2-methyl-5-[[(1R,5S,7s)-9-methyl-3-oxa-9-azabicyclo[3.3.1]nonan-7-yl]oxy]-4-pyridyl]-N-(6-methylpyrimidin-4-yl)pyrazolo[1,5-a]pyridin-2-amine], the IC50 was determined as 0.0122 µM.
The compound `Cc1cc(-c2ccn3nc(Nc4cn(C)nc4C(O)C(F)(F)F)cc3c2)c(O[C@H]2C[C@H]3COC[C@@H](C2)N3C)cn1` (stereo partly drawn) [Example 422, 2,2,2-trifluoro-1-[1-methyl-4-[[5-[2-methyl-5-[[(1S,5R,7s)-9-methyl-3-oxa-9-azabicyclo[3.3.1]nonan-7-yl]oxy]-4-pyridyl]pyrazolo[1,5-a]pyridin-2-yl]amino]pyrazol-3-yl]ethanol] showed an IC50 of less than 0.000847 µM.
On to `Cc1cc(-c2ccn3nc(Nc4ccn(C)n4)cc3c2)c(O[C@H]2C[C@H]3COC[C@@H](C2)N3C)cn1` [Example 423, 5-[2-methyl-5-[[(1S,5R,7s)-9-methyl-3-oxa-9-azabicyclo[3.3.1]nonan-7-yl]oxy]-4-pyridyl]-N-(1-methylpyrazol-3-yl)pyrazolo[1,5-a]pyridin-2-amine], for which half-maximal inhibition (IC50) required 0.0103 µM.
For `Cc1cc(-c2ccn3nc(Nc4ccc(C(F)(F)F)cn4)cc3c2)c(OC[C@@H]2CNCCO2)cn1` [Example 424, 5-[2-methyl-5-[[(2S)-morpholin-2-yl]methoxy]-4-pyridyl]-N-[5-(trifluoromethyl)-2-pyridyl]pyrazolo[1,5-a]pyridin-2-amine], the IC50 under setting [1] is 0.00766 µM.
Turning to `Cc1ccc(Nc2cc3cc(-c4cc(C)ncc4OC[C@@H]4CNCCO4)ccn3n2)nc1` [Example 425, 5-[2-methyl-5-[[(2S)-morpholin-2-yl]methoxy]-4-pyridyl]-N-(5-methyl-2-pyridyl)pyrazolo[1,5-a]pyridin-2-amine], the IC50 under setting [1] was determined as 0.00568 µM.
The same measure, in the same setting: the figure for `Cc1cc(-c2ccn3nc(Nc4cccc(C)n4)cc3c2)c(OC[C@@H]2CNCCO2)cn1` [Example 426, 5-[2-methyl-5-[[(2S)-morpholin-2-yl]methoxy]-4-pyridyl]-N-(6-methyl-2-pyridyl)pyrazolo[1,5-a]pyridin-2-amine] is 0.00403 µM.
With `Cc1cc(-c2ccn3nc(Nc4ccn(C)n4)cc3c2)c(OC[C@H]2CNCCO2)cn1` [Example 429, 5-[2-methyl-5-[[(2R)-morpholin-2-yl]methoxy]-4-pyridyl]-N-(1-methylpyrazol-3-yl)pyrazolo[1,5-a]pyridin-2-amine], half-maximal inhibition (IC50) was put at 0.0122 µM.
As to `Cc1cc(-c2ccn3nc(Nc4cnccn4)cc3c2)c(OC[C@H]2CNCCO2)cn1` [Example 430, 5-[2-methyl-5-[[(2R)-morpholin-2-yl]methoxy]-4-pyridyl]-N-pyrazin-2-yl-pyrazolo[1,5-a]pyridin-2-amine], the 50% inhibitory concentration (IC50) under setting [1] is 0.00801 µM.
Consider `Cc1cc(-c2ccn3nc(Nc4cnccn4)cc3c2)c(OC[C@@H]2CNCCO2)cn1` [Example 431, 5-[2-methyl-5-[[(2S)-morpholin-2-yl]methoxy]-4-pyridyl]-N-pyrazin-2-yl-pyrazolo[1,5-a]pyridin-2-amine], for which the IC50 under setting [1] was 0.00194 µM.
As for `CC#Cc1cc(-c2ccn3nc(NC(=O)C4CC4)cc3c2)c(OCC2(N)COC2)cn1` [Example 433, N-[5-[5-[(3-aminooxetan-3-yl)methoxy]-2-prop-1-ynyl-4-pyridyl]pyrazolo[1,5-a]pyridin-2-yl]cyclopropanecarboxamide], the half-inhibitory concentration (IC50) under setting [1] was less than 0.000847 µM.
For `CC#Cc1cc(-c2ccn3nc(NC(=O)C4CC4)cc3c2)c(OCC2(F)CNC2)cn1` [Example 434, N-[5-[5-[(3-fluoroazetidin-3-yl)methoxy]-2-prop-1-ynyl-4-pyridyl]pyrazolo[1,5-a]pyridin-2-yl]cyclopropanecarboxamide], the IC50 under setting [1] is less than 0.000847 µM.
Take `CC#Cc1cc(-c2ccn3nc(NC(=O)C4CC4)cc3c2)c(O[C@H]2C[C@H](N)C2)cn1` [Example 435, N-(5-(5-((1r,3r)-3-aminocyclobutoxy)-2-(prop-1-yn-1-yl)pyridin-4-yl)pyrazolo[1,5-a]pyridin-2-yl)cyclopropanecarboxamide]: under setting [1], the IC50 is less than 0.000847 µM.
In turn, `CC#Cc1cc(-c2ccn3nc(NC(=O)C4CC4)cc3c2)c(O[C@H]2C[C@H]3COC[C@@H](C2)N3)cn1` [Example 436, N-[5-[5-[[(1S,5R)-3-oxa-9-azabicyclo[3.3.1]nonan-7-yl]oxy]-2-prop-1-ynyl-4-pyridyl]pyrazolo[1,5-a]pyridin-2-yl]cyclopropanecarboxamide] registered an IC50 of less than 0.000847 µM.
On to `CC#Cc1cc(-c2ccn3nc(Nc4ccn(C)n4)cc3c2)c(OCC2(F)CNC2)cn1` [Example 437, 5-[5-[(3-fluoroazetidin-3-yl)methoxy]-2-prop-1-ynyl-4-pyridyl]-N-(1-methylpyrazol-3-yl)pyrazolo[1,5-a]pyridin-2-amine], for which the IC50 under setting [1] was less than 0.000847 µM.

The values above are taken from patent US20240158392A1 (Janssen Biotech, Inc., priority 2021, published 2024).
